Test results from patent US20250163056A1, “NONMUSCLE MYOSIN II INHIBITORS” (The University of Florida Research Foundation, Inc., priority 2018, published 2025).

Experiments:
[1] = Photostability, percentage remaining undegraded under illumination or in the dark; details: for Photostability 4 hours: percentage remaining undegraded after 4 hours illumination; for Photostability 24 hours: percentage remaining undegraded after 24 hours illumination; for Photostability Dark (24 h): percentage remaining undegraded in the dark
[2] = target: Rabbit skeletal myosin; test: Skeletal muscle myosin II actin-activated ATPase assay; format: biochemical; details: 20 nM skeletal muscle myosin II; read-out: SKMMII KI
Description: (§1) The cardiac muscle myosin II actin-activated ATPase assay is a biochemical assay. Specifically, it is an NADH (nicotinamide adenine dinucleotide)-coupled ATPase assay that relies on NADH fluorescence as a readout. Cardiac myosin is a mechanochemical energy transducer that hydrolyzes ATP to generate force in the presence of its activator, F-actin. The resulting ADP is regenerated to ATP by pyruvate kinase (PK) that transforms one molecule of phosphoenolpyruvate (PEP) to pyruvate in parallel. Subsequently, pyruvate is reduced to lactate by lactate dehydrogenase (LDH) that, in turn, oxidizes one molecule of NADH to NAD. Therefore, the decrease in NADH concentration as a function of time equals the ATP hydrolysis rate. Bovine cardiac myosin is obtained from a commercial source, Cytoskeleton. PK, LDH, ATP, PEP, and NADH are obtained from Sigma. F-actin is prepared in house from Rabbit Muscle Acetone Powder. The assay is run at 25° C. in 384 well black-wall polystyrene microplates with a total volume of 20 μl per well. NADH fluorescence is monitored for 30 minutes with an EnVision Multimode Plate Reader. The slope of the fluorescence response, which is proportional to the reaction rate, is determined by simple linear regression. Final assay conditions are 300 nM cardiac myosin, 10 μM actin, 40 U/ml LDH, 200 U/ml PK, 220 μM NADH, 1 mM PEP, 1 mM ATP in a buffer containing 10 mM 3-(N-morpholino)propanesulfonic acid (pH=7.0), 2 mM MgCl2, 0.15 mM ethylene glycol-bis(p-aminoethyl ether)-N,N,N′,N′-tetraacetic acid, 0.1 mg/mL bovine serum albumin, 0.5% (V/V) dimethyl sulfoxide (DMSO) and 1 mM dithiothreitol. Prior to testing the inhibitory activity of the compounds, a two-fold dilution series starting at 10 mM compound concentration is prepared in DMSO. Subsequently, 100 nl is transferred to each well of the measuring plate containing a mixture of myosin, LDH and PK. The enzymatic reaction is started with the addition of a mixture containing ATP, PEP, NADH and actin. The highest final compound concentration is 50 uM. 20 μM para-aminoblebbistatin in 0.5% DMSO serves as the positive control and 0.5% DMSO alone is the negative control. Reaction rates are determined by using the fluorescence responses of a dilution series of NADH included in all plates and plotted as a function of inhibitor concentration. All measurements are carried out in triplicate. Inhibitory constants are determined by fitting the 16 point dose-response data to a quadratic equation corresponding to a simple one-to-one binding model.
The skeletal muscle myosin II actin-activated ATPase assay is performed the same as for cardiac muscle myosin II with the following exceptions: Rabbit skeletal myosin is obtained from Cytoskeleton and the final assay conditions contain 20 nM skeletal muscle myosin II.

[3] = target: Bovine cardiac myosin (Bos taurus (Bovine), UniProt Q9BE39); test: Cardiac muscle myosin II actin-activated ATPase assay (NADH-coupled); format: biochemical; set-up: key to Ratio CMMII:NMII Ki/EC50: NMII-sel: no Ki value for cardiac myosin II could be determined; the compounds had no detectable inhibitory properties versus the cardiac myosin II; details: for Ki: 300 nM cardiac myosin, 10 μM actin, 25° C., read-out: CMMII KI; for Ratio CMMII:NMII Ki/EC50: cardiac myosin II Ki over nonmuscle myosin II EC50
Sequence of Bovine cardiac myosin (Q9BE39 whole entry): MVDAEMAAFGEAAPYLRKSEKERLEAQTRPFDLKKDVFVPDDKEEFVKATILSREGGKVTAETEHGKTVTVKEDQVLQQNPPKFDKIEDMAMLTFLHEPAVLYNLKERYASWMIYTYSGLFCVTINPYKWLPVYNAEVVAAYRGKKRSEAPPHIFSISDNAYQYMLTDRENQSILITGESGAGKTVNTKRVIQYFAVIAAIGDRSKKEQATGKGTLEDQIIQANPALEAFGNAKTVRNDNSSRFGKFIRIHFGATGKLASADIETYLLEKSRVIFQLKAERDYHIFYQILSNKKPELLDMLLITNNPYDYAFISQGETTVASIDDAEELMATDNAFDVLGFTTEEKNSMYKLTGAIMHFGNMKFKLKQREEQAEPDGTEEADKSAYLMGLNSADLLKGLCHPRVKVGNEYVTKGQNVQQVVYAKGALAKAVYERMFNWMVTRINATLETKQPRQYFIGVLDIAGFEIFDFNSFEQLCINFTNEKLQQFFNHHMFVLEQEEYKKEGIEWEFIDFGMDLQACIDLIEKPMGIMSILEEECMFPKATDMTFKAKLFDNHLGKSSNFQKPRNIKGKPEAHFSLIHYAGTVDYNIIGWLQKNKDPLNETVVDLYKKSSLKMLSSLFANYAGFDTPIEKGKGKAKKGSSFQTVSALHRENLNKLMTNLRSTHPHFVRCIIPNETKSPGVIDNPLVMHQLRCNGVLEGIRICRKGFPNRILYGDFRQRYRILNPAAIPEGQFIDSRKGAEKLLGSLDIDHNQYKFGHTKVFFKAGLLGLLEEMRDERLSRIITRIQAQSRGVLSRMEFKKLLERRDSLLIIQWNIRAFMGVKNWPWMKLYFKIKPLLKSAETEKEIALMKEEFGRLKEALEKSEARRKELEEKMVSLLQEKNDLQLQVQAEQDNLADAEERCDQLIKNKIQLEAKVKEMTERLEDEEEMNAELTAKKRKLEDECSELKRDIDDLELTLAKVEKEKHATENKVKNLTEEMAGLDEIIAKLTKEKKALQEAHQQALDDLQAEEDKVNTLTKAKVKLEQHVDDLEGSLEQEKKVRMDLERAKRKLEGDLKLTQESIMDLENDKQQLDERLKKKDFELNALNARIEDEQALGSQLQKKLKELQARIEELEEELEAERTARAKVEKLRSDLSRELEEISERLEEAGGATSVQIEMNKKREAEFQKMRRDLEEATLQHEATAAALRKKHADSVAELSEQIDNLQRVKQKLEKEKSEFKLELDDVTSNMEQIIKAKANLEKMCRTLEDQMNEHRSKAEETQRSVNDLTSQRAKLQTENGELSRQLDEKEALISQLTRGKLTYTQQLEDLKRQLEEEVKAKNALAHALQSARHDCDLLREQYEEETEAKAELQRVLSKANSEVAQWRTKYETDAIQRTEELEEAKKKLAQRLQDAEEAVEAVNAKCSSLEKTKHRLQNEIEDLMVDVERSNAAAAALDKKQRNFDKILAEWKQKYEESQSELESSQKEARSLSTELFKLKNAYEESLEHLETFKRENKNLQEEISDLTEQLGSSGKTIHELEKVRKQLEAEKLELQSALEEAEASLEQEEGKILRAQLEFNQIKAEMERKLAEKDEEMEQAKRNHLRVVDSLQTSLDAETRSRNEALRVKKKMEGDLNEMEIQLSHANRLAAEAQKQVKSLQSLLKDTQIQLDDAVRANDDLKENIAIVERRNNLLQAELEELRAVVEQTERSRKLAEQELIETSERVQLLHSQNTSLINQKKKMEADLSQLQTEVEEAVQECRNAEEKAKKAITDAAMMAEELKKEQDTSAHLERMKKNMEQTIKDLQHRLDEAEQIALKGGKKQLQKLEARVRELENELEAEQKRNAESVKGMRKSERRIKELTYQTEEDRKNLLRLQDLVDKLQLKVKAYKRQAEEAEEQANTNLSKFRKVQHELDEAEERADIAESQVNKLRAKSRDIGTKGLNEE
Sequence of Bovine cardiac myosin (P85100 whole entry partner): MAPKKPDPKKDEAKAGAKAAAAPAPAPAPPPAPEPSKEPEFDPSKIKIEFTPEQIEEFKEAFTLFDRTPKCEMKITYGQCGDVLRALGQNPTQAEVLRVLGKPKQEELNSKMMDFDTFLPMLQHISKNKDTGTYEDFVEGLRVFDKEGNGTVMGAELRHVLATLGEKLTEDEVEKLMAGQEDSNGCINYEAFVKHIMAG
Sequence of Bovine cardiac myosin (Q3SZE5 whole entry partner): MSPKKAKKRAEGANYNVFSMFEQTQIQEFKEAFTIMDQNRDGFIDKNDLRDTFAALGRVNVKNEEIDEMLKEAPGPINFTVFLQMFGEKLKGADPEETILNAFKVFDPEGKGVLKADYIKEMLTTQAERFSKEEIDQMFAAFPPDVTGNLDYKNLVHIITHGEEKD
Description: as §1

Photostability 4 hours [1] [%] | Photostability 24 hours [1] [%] | Photostability Dark (24 h) [1] [%] | Ki [2] [µM] | Ki [3] [µM] | Ratio CMMII:NMII Ki/EC50 [3] | Compound
97.7 | 84.9 | >99 | 0.18 | 5.7 | 12.4 | Cc1cc2c(cc1C)C(=O)[C@]1(O)CCN(c3ccc(C#N)cc3)C1=N2 [BPN-0026499]
92.2 | 22.8 | >99 | 23 | – | NMII-sel | Cc1cc2c(cc1C)C(=O)[C@]1(O)CCN(c3cccc(Cl)c3)C1=N2 [BPN-0026500]
87.7 | 6.4 | 91.7 | 60 | – | NMII-sel | COc1cc(N2CC[C@@]3(O)C(=O)c4cc(C(F)(F)F)ccc4N=C23)ccn1 [BPN-0026533]
51.1 | 10.8 | 93.7 | 4.8 | – | NMII-sel | O=C1c2cc(C(F)(F)F)ccc2N=C2N(c3ccc(Cl)cc3)CC[C@@]12O [BPN-0026544]
89.4 | 5.1 | >99 | 12 | – | NMII-sel | O=C1c2cc(Cl)ccc2N=C2N(c3ccc4ccsc4c3)CC[C@@]12O [BPN-0026545]
81.2 | 12.5 | 93.5 | 22 | – | NMII-sel | O=C1c2cc(Cl)ccc2N=C2N(c3ccc4sccc4c3)CC[C@@]12O [BPN-0026546]
98.6 | >99 | >99 | 4.6 | 18 | 3.3 | Cc1cc2c(s1)N=C1N(c3ccc(C#N)c(C)c3)CC[C@@]1(O)C2=O [BPN-0026576]
77.3 | 8.5 | 93.7 | 0.37 | 5 | 5.0 | Cc1ccc(N2CC[C@@]3(O)C(=O)c4cc(F)c(C)cc4N=C23)cc1 [BPN-0026579]
69.6 | 2.3 | 94.2 | 0.29 | 15 | 15.0 | COc1ccc(N2CC[C@@]3(O)C(=O)c4cc(F)c(C)cc4N=C23)cc1 [BPN-0026605]
98.5 | 84.7 | 98.1 | 5.8 | – | NMII-sel | Cc1ccc(N2CC[C@@]3(O)C(=O)c4cc(F)c(C)cc4N=C23)cc1C [BPN-0026607]
86.7 | <1 | 97.5 | 1.7 | 50 | 11.6 | N#Cc1ccc(N2CC[C@@]3(O)C(=O)c4cc(C(F)(F)F)ccc4N=C23)cc1 [BPN-0026608]
92.3 | 17.2 | 96.6 | 5.9 | 18 | 3.8 | COc1cccc(N2CC[C@@]3(O)C(=O)c4cc(F)c(C)cc4N=C23)c1 [BPN-0026618]
77.4 | <1 | 91.0 | 2.5 | 36 | 22.5 | Cc1cc2c(cc1F)C(=O)[C@]1(O)CCN(c3ccc4ccoc4c3)C1=N2 [BPN-0026619]
94.1 | 27.8 | 92.8 | 16 | – | NMII-sel | Cc1cccc(N2CC[C@@]3(O)C(=O)c4cc(F)c(C)cc4N=C23)c1 [BPN-0026620]
93.3 | 61.4 | 93.5 | 3.4 | 40 | 7.0 | COc1cc(N2CC[C@@]3(O)C(=O)c4cc(Cl)ccc4N=C23)ccn1 [BPN-0026621]
90.5 | 88.2 | 92.2 | 24 | 210 | 14.0 | Cc1cc2c(s1)N=C1N(c3cccc(Br)c3)CC[C@@]1(O)C2=O [BPN-0026624]
87.9 | 71.9 | 91.6 | 0.37 | 12 | 7.1 | Cc1cc2c(cc1F)C(=O)[C@]1(O)CCN(c3ccc(C#N)cc3)C1=N2 [BPN-0026638]
89.8 | 49.5 | >99 | 1.1 | 14 | 4.2 | Cc1cc2c(s1)N=C1N(c3ccc4ccoc4c3)CC[C@@]1(O)C2=O [BPN-0026639]
71.1 | 17.8 | 96.8 | 0.53 | 8 | 4.0 | O=C1c2cc(Cl)ccc2N=C2N(c3ccc(Cl)cc3)CC[C@@]12O [BPN-0026640]
64.0 | <1 | 85.1 | 1.9 | 17 | 3.5 | O=C1c2cc(Cl)c(Cl)cc2N=C2N(c3ccccc3)CC[C@@]12O [BPN-0026643]
94.3 | 84.3 | 97.7 | 4.5 | 56 | 11.9 | Cc1cc2c(cc1C(F)(F)F)N=C1N(c3ccccc3)CC[C@@]1(O)C2=O [BPN-0026648]
80.5 | 5.5 | >99 | 4.3 | – | NMII-sel | Cc1ccc2c(c1)C(=O)[C@]1(O)CCN(c3ccc4ccsc4c3)C1=N2 [BPN-0026650]
73.0 | 5.8 | 97.5 | 3.9 | – | NMII-sel | Cc1ccc2c(c1)C(=O)[C@]1(O)CCN(c3ccc4sccc4c3)C1=N2 [BPN-0026651]
72.1 | 17.9 | 91.1 | 0.93 | 9 | 3.5 | Cc1cc2c(cc1Cl)C(=O)[C@]1(O)CCN(c3ccccc3)C1=N2 [BPN-0026659]
87.4 | 7.6 | 93.8 | 33 | – | NMII-sel | Cc1cc2c(cc1C)C(=O)[C@]1(O)CCN(c3cccc(Br)c3)C1=N2 [BPN-0026660]
95.5 | 65.4 | 98.2 | 2.2 | 53 | 22.1 | Cc1cc2c(cc1C)C(=O)[C@]1(O)CCN(c3ccc(C#N)c(C)c3)C1=N2 [BPN-0026661]
85.4 | 7.5 | >99 | 0.19 | 6 | 5.5 | Cc1cc2c(cc1C)C(=O)[C@]1(O)CCN(c3ccc(Cl)cc3)C1=N2 [BPN-0026662]
40.7 | 2.0 | 97.3 | 0.12 | 2.8 | 3.5 | Cc1ccc(N2CC[C@@]3(O)C(=O)c4cc(C)c(C)cc4N=C23)cc1 [BPN-0026663]
